Where two headings read alike, the source gives them in different places.
How the values were obtained:
[1] = tested on: engorged adult female cattle ticks (Boophilus microplus); test: Boophilus microplus injection test; assay type: in vivo; settings: application rate 20 μg/animal, assessed after 7 days
Experimental: Boophilus microplus—Injection Test
Solvent: dimethyl sulphoxide
To produce an appropriate active ingredient formulation, 10 mg of active ingredient are mixed with 0.5 ml of solvent and the concentrate is diluted with solvent to the desired concentration.
1 μl of the active ingredient solution is injected into the abdomen of 5 engorged adult female cattle ticks (Boophilus microplus). The animals are transferred into dishes and kept in a climate-controlled room.
The efficacy is assessed after 7 days by laying of fertile eggs. Eggs which are not visibly fertile are stored in a climate-controlled cabinet until the larvae hatch after about 42 days. An efficacy of 100% means that none of the ticks has laid any fertile eggs; 0% means that all the eggs are fertile.

[2] = tested on: greenhouse red spider mite (Tetranychus urticae); test: Tetranychus urticae spray test, OP-resistant (bean leaf discs); assay type: in vivo; settings: application rate 500 g/ha, after 6 days; for pest or weed control at 500 g/ha: Tetranychus urticae, foliar, 144 h, read-out: efficacy (spider mites killed)
In short: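 Compound dissolved in acetone/DMF and diluted in water with 1000 ppm alkylaryl polyglycol ether emulsifier, then sprayed on bean leaf discs infested with all stages of OP-resistant T. urticae. Mortality in % scored after 6 days (100% = all mites killed).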

[3] = log P by reversed-phase HPLC analogously to OECD Guideline 117; assay type: physicochemical; settings: for chromatographic logP: reversed-phase C18 HPLC column
In short: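 Retention on reversed-phase C18 HPLC (LC-MS), acidic runs at pH 2.7 with formic acid or trifluoroacetic acid/acetonitrile gradients, neutral runs at pH 7.8 with 0.001 molar ammonium hydrogencarbonate/acetonitrile. log P obtained by linear interpolation of retention times against unbranched alkan-2-ones (C3–C16) of known log P.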

[4] = tested on: southern root-knot nematode (Meloidogyne incognita); test: Meloidogyne incognita test (sand, lettuce, acetone solvent, 14 days); assay type: in vivo; settings: application rate 20 ppm, after 14 days; for pest or weed control at 20 ppm: Meloidogyne incognita, 336 h, read-out: nematicidal efficacy (formation of galls)
Experimental: Meloidogyne incognita Test
Solvent: 125.0 parts by weight of acetone
To produce an appropriate active ingredient formulation, 1 part by weight of active ingredient is mixed with the stated amount of solvent and the concentrate is diluted with water to the desired concentration.
Vessels are filled with sand, active ingredient solution, an egg/larvae suspension of the southern root-knot nematode (Meloidogyne incognita) and lettuce seeds. The lettuce seeds germinate and the plants develop. The galls develop on the roots
After 14 days, the nematicidal efficacy in % is determined by the formation of galls. 100% means that no galls were found; 0% means that the number of galls on the treated plants corresponds to the untreated control.

[5] = tested on: larvae of the mustard beetle (Phaedon cochleariae); test: Phaedon cochleariae spray test; assay type: in vivo; settings: application rate 500 g/ha, after 7 days
Experimental: Phaedon cochleariae—Spray Test
Solvent: 78.0 parts by weight of acetone • • 1.5 parts by weight of dimethylformamide
(§1) Emulsifier: alkylaryl polyglycol ether
(§2) To produce an appropriate active ingredient formulation, 1 part by weight of active ingredient is dissolved using the specified parts by weight of solvent and made up with water containing an emulsifier concentration of 1000 ppm until the desired concentration is attained. To produce further test concentrations, the preparation is diluted with emulsifier-containing water.
Discs of Chinese cabbage leaves (Brassica pekinensis) are sprayed with an active ingredient formulation of the desired concentration and, after drying, populated with larvae of the mustard beetle (Phaedon cochleariae).
After 7 days, the efficacy in % is determined. 100% means that all the beetle larvae have been killed; 0% means that no beetle larvae have been killed.

[6] = tested on: green peach aphid (Myzus persicae); test: Myzus persicae spray test (Chinese cabbage leaf discs); assay type: in vivo; settings: application rate 500 g/ha, after 6 days
Experimental: Myzus persicae—Spray Test
Solvent: 78 parts by weight of acetone • • 1.5 parts by weight of dimethylformamide
as §1, §2
Discs of Chinese cabbage leaves (Brassica pekinensis) infested by all stages of the green peach aphid (Myzus persicae) are sprayed with an active ingredient formulation of the desired concentration.
After 6 days, the efficacy in % is determined 100% means that all the aphids have been killed; 0% means that none of the aphids have been killed.

[7] = tested on: greenhouse red spider mite (Tetranychus urticae); test: Tetranychus urticae spray test, OP-resistant (bean plants); assay type: in vivo; settings: application rate 20 ppm, after 7 days
Experimental: Tetranychus urticae—Spray Test, OP-Resistant
Solvent: 7 parts by weight of dimethylformamide
as §1
as §2, with “water. If the addition of ammonium salts or/and penetrants is required, these are each added in a concentration of 1000 ppm to the formulation solution.” for “water.”
Bean plants (Phaseolus vulgaris) heavily infested by all stages of the greenhouse red spider mite (Tetranychus urticae) are treated by spraying with the active ingredient formulation in the desired concentration.
After 7 days, the efficacy in % is determined. 100% means that all the spider mites have been killed; 0% means that none of the spider mites have been killed.

[8] = [a] acidic range, pH 2.7, formic acid (or trifluoroacetic acid)/acetonitrile
[9] = [b] neutral range, pH 7.8, ammonium hydrogencarbonate/acetonitrile
[10] = pH 2.7, running text, [a] acidic range, pH 2.7, read-out: log P[a]
[11] = pH 2.7, table column, [a] acidic range, pH 2.7, formic acid (or trifluoroacetic acid)/acetonitrile, read-out: LogP[a]

Cc1cc(C)c([S+]([O-])CC(F)(F)F)cc1-n1ncc(=O)n(C)c1=O (racemic) [compound 4]
efficacy (no fertile eggs laid) [1]: 100% | efficacy (spider mites killed) [2]: 100% | LogP[a] [3, 8]: 2.01

Cc1cc(C)c([S+]([O-])CC(F)(F)F)cc1-n1ncc(=O)n(CC(F)(F)F)c1=O (racemic) [compound 6]
efficacy (no fertile eggs laid) [1]: 100% | efficacy (spider mites killed) [2]: 90% | LogP[a] [3, 8]: 2.73

Cc1cc(F)c(-n2ncc(=O)n(CC(F)(F)F)c2=O)cc1[S+]([O-])CC(F)(F)F (racemic) [compound 9]
efficacy (no fertile eggs laid) [1]: 100% | nematicidal efficacy (formation of galls) [4]: 100% | efficacy (spider mites killed) [2]: 100% | LogP[a] [3, 8]: 2.65

O=c1cnn(-c2cc([S+]([O-])CC(F)(F)F)c(Cl)cc2Cl)c(=O)n1CC(F)(F)F (racemic) [compound 11]
efficacy (no fertile eggs laid) [1]: 100% | nematicidal efficacy (formation of galls) [4]: 90% | efficacy (spider mites killed) [2]: 100% | LogP[a] [3, 8]: 3.21

CCn1c(=O)cnn(-c2cc([S+]([O-])CC(F)(F)F)c(C)cc2F)c1=O (racemic) [compound 21]
efficacy (no fertile eggs laid) [1]: 100% | nematicidal efficacy (formation of galls) [4]: 100% | efficacy (spider mites killed) [2]: 100% | LogP[a] [3, 8]: 2.24 | LogP[b] [3, 9]: 2.22

Cc1cc(F)c(-n2ncc(=O)n(CC(C)C)c2=O)cc1[S+]([O-])CC(F)(F)F (racemic) [compound 22]
efficacy (no fertile eggs laid) [1]: 100% | nematicidal efficacy (formation of galls) [4]: 90% | efficacy (spider mites killed) [2]: 100% | LogP[a] [3, 8]: 2.92 | LogP[b] [3, 9]: 2.9

Cc1cc(F)c(-n2ncc(=O)n(CC3CC3)c2=O)cc1[S+]([O-])CC(F)(F)F (racemic) [compound 27]
nematicidal efficacy (formation of galls) [4]: 100% | efficacy (beetle larvae killed) [5]: 100% | efficacy (spider mites killed) [2]: 100% | LogP[a] [3, 8]: 2.72 | LogP[b] [3, 9]: 2.65

Cc1cc(F)c(-n2ncc(=O)n(CC#N)c2=O)cc1[S+]([O-])CC(F)(F)F (racemic) [compound 44]
efficacy (aphids killed) [6]: 90% | efficacy (spider mites killed) [7]: 95% | LogP[a] [3, 8]: 2.02 | LogP[b] [3, 9]: 1.96

Cc1cc(F)c(-n2ncc(=O)n(Cc3ccccc3)c2=O)cc1[S+]([O-])CC(F)(F)F (racemic) [compound 45]
efficacy (spider mites killed) [7]: 90% | LogP[a] [3, 8]: 3.00 | LogP[b] [3, 9]: 2.9

Cc1cc(F)c(-n2ncc(=O)n(Cc3ccc[n+]([O-])c3)c2=O)cc1[S+]([O-])CC(F)(F)F (racemic) [compound 48]
efficacy (aphids killed) [6]: 90% | LogP[a] [3, 8]: 1.51 | LogP[b] [3, 9]: 1.45

Cc1cc(F)c(-n2ncc(=O)n(Cc3cccnc3)c2=O)cc1[S+]([O-])CC(F)(F)F (racemic) [compound 49]
efficacy (aphids killed) [6]: 90% | LogP[a] [3, 8]: 1.47 | LogP[b] [3, 9]: 2.00

Cc1cc(C)c([S+]([O-])CC(F)(F)F)cc1-n1ncc(=O)n(CC(F)(F)F)c1=O (single isomer, unassigned) [compound 47]
efficacy (spider mites killed) [7]: 100% | LogP[a] [3, 8]: 2.72 | LogP[b] [3, 9]: 2.66

Cc1cc(F)c(-n2ncc(=O)n(C)c2=O)cc1SCC(F)(F)F [Ex. No. 3, 2-{2-Fluoro-4-methyl-5-[(2,2,2-trifluoroethyl)sulphanyl]phenyl}-4-methyl-1,2,4-triazine-3,5(2H,4H)-dione]
efficacy (no fertile eggs laid) [1]: 100% | pest or weed control at 20 ppm [4]: 90% | pest or weed control at 500 g/ha [2]: 100% | chromatographic logP [3, 10]: 2.94 | chromatographic logP [3, 11]: 2.94

Cc1cc(F)c(-n2ccc(=O)n(C)c2=O)cc1[S+]([O-])CC(F)(F)F (stereo not drawn) [Ex. No. 54, 1-{2-Fluoro-4-methyl-5-[(2,2,2-trifluoroethyl)sulphinyl]phenyl}-3-methylpyrimidine-2,4(1H,3H)-dione]
efficacy (no fertile eggs laid) [1]: 100% | pest or weed control at 20 ppm [4]: 100% | pest or weed control at 500 g/ha [2]: 100% | chromatographic logP [3, 10]: 1.66 | chromatographic logP [3, 11]: 1.61 | chromatographic logP ([3]; pH 7.8, running text, [b] neutral range, pH 7.8, read-out: log P[b]): 1.61 | chromatographic logP ([3]; pH 7.8, table column, [b] neutral range, pH 7.8, ammonium hydrogencarbonate/acetonitrile, read-out: LogP[b]): 1.66

CCn1c(=O)cnn(-c2cc(SCC(F)(F)F)c(C)cc2F)c1=O [compound 19]
efficacy (no fertile eggs laid) [1]: 100% | nematicidal efficacy (formation of galls) [4]: 90% | efficacy (spider mites killed) [2]: 100% | LogP[a] [3, 8]: 3.31 | LogP[b] [3, 9]: 3.27

Cc1cc(F)c(-n2ncc(=O)n(CC(C)C)c2=O)cc1SCC(F)(F)F [compound 20]
efficacy (no fertile eggs laid) [1]: 100% | nematicidal efficacy (formation of galls) [4]: 90% | efficacy (spider mites killed) [2]: 100% | LogP[a] [3, 8]: 4.03 | LogP[b] [3, 9]: 4

Cc1cc(F)c(-n2ncc(=O)n(CC3CC3)c2=O)cc1SCC(F)(F)F [compound 25]
nematicidal efficacy (formation of galls) [4]: 100% | efficacy (beetle larvae killed) [5]: 100% | efficacy (spider mites killed) [2]: 100% | LogP[a] [3, 8]: 3.79 | LogP[b] [3, 9]: 3.76

Cn1c(=O)cnn(-c2ccc(Cl)c(SCC(F)(F)F)c2)c1=O [compound 32]
efficacy (aphids killed) [6]: 90% | efficacy (spider mites killed) [2]: 100% | LogP[a] [3, 8]: 2.18 | LogP[b] [3, 9]: 2.16

Cc1cc(F)c(-n2ncc(=O)n(Cc3cccnc3)c2=O)cc1SCC(F)(F)F [compound 43]
efficacy (aphids killed) [6]: 90% | efficacy (spider mites killed) [2]: 90% | LogP[a] [3, 8]: 2.36 | LogP[b] [3, 9]: 2.87

C#CCn1c(=O)ccn(-c2cc(SCC(F)(F)F)c(C)cc2F)c1=O [compound 79]
nematicidal efficacy (formation of galls) [4]: 100% | efficacy (beetle larvae killed) [5]: 100% | efficacy (spider mites killed) [2]: 90% | LogP[a] [3, 8]: 2.78 | LogP[b] [3, 9]: 2.81

COCn1c(=O)ccn(-c2cc(SCC(F)(F)F)c(C)cc2F)c1=O [compound 80]
nematicidal efficacy (formation of galls) [4]: 100% | efficacy (spider mites killed) [7]: 100% | LogP[a] [3, 8]: 2.62 | LogP[b] [3, 9]: 2.66

Cc1cc(F)c(-n2ccc(=O)n(CC(F)F)c2=O)cc1SCC(F)(F)F [compound 82]
nematicidal efficacy (formation of galls) [4]: 100% | efficacy (spider mites killed) [7]: 100% | LogP[a] [3, 8]: 2.99 | LogP[b] [3, 9]: 3.06

CCn1c(=O)ccn(-c2cc([S+]([O-])CC(F)(F)F)c(C)cc2C)c1=O (stereo not drawn) [compound 97]
nematicidal efficacy (formation of galls) [4]: 90% | efficacy (spider mites killed) [2]: 100% | LogP[a] [3, 8]: 1.96 | LogP[b] [3, 9]: 1.99

CCn1c(=O)ccn(-c2ccc(C)c([S+]([O-])CC(F)(F)F)c2)c1=O (stereo not drawn) [compound 98]
nematicidal efficacy (formation of galls) [4]: 100% | efficacy (spider mites killed) [2]: 100% | LogP[a] [3, 8]: 1.77 | LogP[b] [3, 9]: 1.77

Cc1ccc(-n2ccc(=O)n(CC#N)c2=O)cc1[S+]([O-])CC(F)(F)F (stereo not drawn) [compound 100]
nematicidal efficacy (formation of galls) [4]: 100% | efficacy (spider mites killed) [2]: 90% | LogP[a] [3, 8]: 1.63 | LogP[b] [3, 9]: 1.62

Reference: patent US9783509B2, “Six-membered C-N-linked aryl sulfide derivatives and aryl sulfoxide derivatives as pest conrol agents” (BAYER CROPSCIENCE AKTIENGESELLSCHAFT, priority 2013, dated 2017)
